Assay results: patent US20220071932A1, “Compositions and Methods Against Stress-Induced Affective Disorders and Their Associated Symptoms” (The Trustees of Columbia University in the City of New York, priority 2019, published 2022)

Experiments:
Assay type in all cases: in vivo
129S6/SvEv mice [1] = assay: Novelty suppressed feeding (NSF)
Protocol: Testing was performed as previously described (47). Briefly, the NSF testing apparatus consisted of a plastic box (50×50×20 cm). The floor of which was covered with approximately 2 cm of wooden bedding and the arena was brightly lit (approximately 1000 lux). Mice were food restricted for 24 h prior to testing. At the time of testing, a single pellet of food (regular chow) was placed on a white paper platform positioned in the center of the box. Each animal was placed in a corner of the box, and a stopwatch was immediately started. The latency of the mice to begin eating in the arena was recorded Immediately after the latency was recorded, the food pellet was removed from the arena. The mice were then placed back into their home cage. The latency to eat and the amount of food consumed in 5 min were measured (home cage consumption), followed by an assessment of post-restriction weight. A Kaplan-Meier survival analysis was used due to the lack of normal distribution of data. The Mantel-Cox log-rank test was used to evaluate differences between the experimental groups.

129S6/SvEv mice [2] = assay: Marble burying (MB); details: 30 mg/kg; drug 5 minutes after stress; FIG. 2K
Protocol: The MB assay was conducted in a clean cage (10.5 in×5.5 in) containing soft pliable Beta Chip bedding (Northeastern Products Corp, Warrensburg, N.Y.). The cage contained 16 marbles set up in 4 rows of 4 across. Mice were given 30 minutes to explore and bury. At the end of the assay, the percentage of marbles buried was calculated.

129S6/SvEv mice [3] = assay: Contextual fear conditioning (CFC), 3-shock; freezing; details: for p, Freezing (%), CFC Re-exposure 2, Saline vs. drug: drug 5 min after re-exposure 1; for Behavior: Fear: dose 30 mg/kg
Protocol: A 3-shock CFC paradigm was administered as previously described (45, 46). CFC was conducted in chambers obtained from Med Associates (St. Albans, Vt.), with internal dimensions of approximately 20 cm wide×16 cm deep×20.5 cm high. The chambers had metal walls on each side, clear plastic front and back walls and ceilings, and stainless-steel bars on the floor. A house light (CM1820 bulb, 28v, 100 mA) mounted directly above the chamber provided illumination. Each chamber was located inside a larger, insulated, plastic cabinet that provided protection from outside light and noise. Each cabinet contained a ventilation fan that was operated during the sessions. A paper towel dabbed with lemon solution was placed underneath the chamber floor. Mice were held outside the experimental room in their home cages prior to testing and transported to the conditioning apparatus individually in standard mouse cages Chambers were cleaned with 70% EtOH between each set of mice. Mice were placed into the conditioning chamber and received shocks at 180 s, 240 s, and 300 s (2 s duration, 0.75 mA). Fifteen seconds after the last shock, mice were removed from the chamber. Overall, the training session lasted 317 s. […] All sessions were scored for freezing using FreezeFrame4.

129S6/SvEv mice [4] = assay: Elevated plus maze (EPM); details: (R,S)-ketamine 30 mg/kg, FENM 10, 20 or 30 mg/kg, vs saline
Protocol: Testing was performed as previously described (47). Briefly, the maze is a plus-cross-shaped apparatus consisting of four arms, two open and two enclosed by walls, linked by a central platform at a height of 50 cm from the floor. Mice were individually placed in the center of the maze facing an open arm and were allowed to explore the maze for 5 min. The time spent in and the number of entries into the open arms was used as an anxiety index. Videos were scored using ANY-maze behavior tracking software (Stoelting, Wood Dale, Ill.).

[5] = 5 min after context re-exposure 1, (R,S)-ketamine 30 mg/kg, FENM 20 mg/kg, vs saline
[6] = 5 min prior to CFC, (R,S)-ketamine 30 mg/kg, FENM 20 mg/kg, vs saline
[7] = 5 minutes after CFC, re-exposure 1 day after training, (R,S)-ketamine 30 mg/kg, FENM 20 mg/kg, vs saline
[8] = 5 minutes prior to re-exposure 1, (R,S)-ketamine 30 mg/kg, FENM 20 mg/kg, vs saline
[9] = 30 mg/kg, drug 1 week before stress, FIG. 1C
[10] = 30 mg/kg, drug 5 minutes after stress, FIG. 2C
[11] = Saline vs. (R,S)-ketamine (30 mg/kg), FIG. 8D
[12] = Saline vs. (R,S)-ketamine (30 mg/kg), FIG. 8F
[13] = 5 minutes after CFC, re-exposure 5 days after training

CNC1(c2ccccc2Cl)CCCCC1=O (racemic) [(R,S)-ketamine, reference compound]
latency to feed in the open arena (NSF) (129S6/SvEv mice [1]; 1 week prior to CFC, (R,S)-ketamine 30 mg/kg, FENM 10, 20 or 30 mg/kg, vs saline): did not alter | latency to eat in the NSF arena (129S6/SvEv mice [1]; [5]): did not alter | latency to eat in the homecage (NSF) (129S6/SvEv mice [1]; [5]): did not alter | latency to feed in the open arena (NSF) (129S6/SvEv mice [1]; [6]): increased the latency to feed | latency to feed in the home cage (NSF) (129S6/SvEv mice [1]; [7]): did not alter | latency to feed in the open arena (NSF) (129S6/SvEv mice [1]; [7]): did not alter | latency to feed in the open arena (NSF) (129S6/SvEv mice [1]; 5 minutes after CFC, re-exposure 5 days after training, (R,S)-ketamine 30 mg/kg, FENM 10, 20 or 30 mg/kg, vs saline): did not alter | latency to eat in the NSF arena (129S6/SvEv mice [1]; [8]): did not alter | latency to eat in the homecage (NSF) (129S6/SvEv mice [1]; [8]): did not alter | Novelty Suppressed Feeding, Latency to feed in OF (sec), p (Fisher's LSD) (129S6/SvEv mice [1]; Saline vs. (R,S)-ketamine (30 mg/kg), FIG. 8P): 0.0575 | p, Fisher's PLSD Saline vs. drug, MB Marbles Buried (no.) (129S6/SvEv mice [2]): 0.7292 | p, Fisher's LSD Saline vs. drug, CFC Re-exposure Freezing Min 1 (%) (129S6/SvEv mice [3]; [9]): 0.0101 | p, Fisher's LSD Saline vs. drug, CFC Re-exposure Freezing Min 2 (%) (129S6/SvEv mice [3]; [9]): 0.0012 | p, Fisher's LSD Saline vs. drug, CFC Re-exposure Freezing Min 3 (%) (129S6/SvEv mice [3]; [9]): 0.0320 | p, Fisher's LSD Saline vs. drug, CFC Re-exposure Freezing Min 4 (%) (129S6/SvEv mice [3]; [9]): 0.0592 | p, Fisher's LSD Saline vs. drug, CFC Re-exposure Freezing Min 5 (%) (129S6/SvEv mice [3]; [9]): 0.4016 | p, Fisher's LSD Saline vs. drug, CFC Re-exposure Freezing (%) (129S6/SvEv mice [3]; 30 mg/kg, drug 1 week before stress, after ANOVA, FIG. 1D): 0.0086 | p, Fisher's LSD Saline vs. drug, CFC Re-exposure Freezing (%) (129S6/SvEv mice [3]; 30 mg/kg, drug 1 week before stress, after RMANOVA, FIG. 1C): 0.0086 | p, Fisher's PLSD Saline vs. drug, CFC Re-exposure Freezing Min 1 (%) (129S6/SvEv mice [3]; [10]): 0.6701 | p, Fisher's PLSD Saline vs. drug, CFC Re-exposure Freezing Min 2 (%) (129S6/SvEv mice [3]; [10]): 0.0587 | p, Fisher's PLSD Saline vs. drug, CFC Re-exposure Freezing Min 3 (%) (129S6/SvEv mice [3]; [10]): 0.1358 | p, Fisher's PLSD Saline vs. drug, CFC Re-exposure Freezing Min 4 (%) (129S6/SvEv mice [3]; [10]): 0.5515 | p, Fisher's PLSD Saline vs. drug, CFC Re-exposure Freezing Min 5 (%) (129S6/SvEv mice [3]; [10]): 0.1641 | p, Fisher's PLSD Saline vs. drug, CFC Re-exposure Freezing (%) (129S6/SvEv mice [3]; 30 mg/kg, drug 5 minutes after stress, after RMANOVA, FIG. 2C): 0.4342 | fear expression during CFC re-exposure (129S6/SvEv mice [3]; 1 week prior to CFC, (R,S)-ketamine 30 mg/kg, FENM 20 and 30 mg/kg, vs saline): decreased fear expression | fear expression during re-exposure 2 (129S6/SvEv mice [3]; 5 min after context re-exposure 1 (24 h before re-exposure 2), (R,S)-ketamine 30 mg/kg, FENM 20 mg/kg, vs saline): but not (R,S)-ketamine, significantly decreased | fear expression during CFC re-exposure 1 (129S6/SvEv mice [3]; [6]): significantly decreased fear expression | fear expression during CFC re-exposure 2 (129S6/SvEv mice [3]; [6]): significantly decreased fear expression | freezing during CFC training (129S6/SvEv mice [3]; [6]): significantly increased freezing | p, Freezing (%), CFC Re-exposure 2, Saline vs. drug (129S6/SvEv mice [3]; Fisher's LSD after ANOVA, FENM 20 mg/kg, (R,S)-ketamine 30 mg/kg, FIG. 4G): 0.9122 | p, Freezing (%), CFC Re-exposure 2, Saline vs. drug (129S6/SvEv mice [3]; Fisher's LSD after RMANOVA, FENM 20 mg/kg, ketamine 30 mg/kg, FIG. 4F): 0.9122 | p, Freezing (%), CFC Training, Saline vs. drug (129S6/SvEv mice [3]; Fisher's LSD after RMANOVA, drug 5 min before CFC, (R,S)-ketamine 30 mg/kg, FENM dose lies beyond the rows shown, FIG. 8B): 0.0024 | Behavior: Fear (129S6/SvEv mice [3]; Prophylactic (5 min before stress)): ↓ | Behavior: Fear (129S6/SvEv mice [3]; Prophylactic (7 days before stress)): ↓ | CFC Training, Average Freezing, p (Fisher's LSD) (129S6/SvEv mice [3]; Saline vs. (R,S)-ketamine (30 mg/kg), FIG. 8C): 0.0024 | CFC Re-exposure 1, Freezing Min 1 (%), p (Fisher's LSD) (129S6/SvEv mice [3]; [11]): 0.0066 | CFC Re-exposure 1, Freezing Min 2 (%), p (Fisher's LSD) (129S6/SvEv mice [3]; [11]): <0.0001 | CFC Re-exposure 1, Freezing Min 3 (%), p (Fisher's LSD) (129S6/SvEv mice [3]; [11]): <0.0001 | CFC Re-exposure 1, Freezing Min 4 (%), p (Fisher's LSD) (129S6/SvEv mice [3]; [11]): <0.0001 | CFC Re-exposure 1, Freezing Min 5 (%), p (Fisher's LSD) (129S6/SvEv mice [3]; [11]): <0.0001 | CFC Re-exposure 2, Freezing Min 1 (%), p (Fisher's LSD) (129S6/SvEv mice [3]; [12]): 0.4378 | CFC Re-exposure 2, Freezing Min 2 (%), p (Fisher's LSD) (129S6/SvEv mice [3]; [12]): 0.0304 | CFC Re-exposure 2, Freezing Min 4 (%), p (Fisher's LSD) (129S6/SvEv mice [3]; [12]): <0.0001 | CFC Re-exposure 2, Freezing Min 5 (%), p (Fisher's LSD) (129S6/SvEv mice [3]; [12]): <0.0001 | CFC Re-exposure 1, Freezing (%), p (Fisher's LSD) (129S6/SvEv mice [3]; Saline vs. (R,S)-ketamine (30 mg/kg), after ANOVA, FIG. 8E): <0.0001 | CFC Re-exposure 2, Freezing (%), p (Fisher's LSD) (129S6/SvEv mice [3]; Saline vs. (R,S)-ketamine (30 mg/kg), after ANOVA, FIG. 8G): <0.0001 | CFC Re-exposure 1, Freezing (%), p (Fisher's LSD) (129S6/SvEv mice [3]; Saline vs. (R,S)-ketamine (30 mg/kg), after RMANOVA, FIG. 8D): <0.0001 | CFC Re-exposure 2, Freezing (%), p (Fisher's LSD) (129S6/SvEv mice [3]; Saline vs. (R,S)-ketamine (30 mg/kg), after RMANOVA, FIG. 8F): <0.0001 | CFC Re-exposure 2, Freezing Min 3 (%), p (Fisher's LSD) (129S6/SvEv mice [3]; Saline vs. ketamine (30 mg/kg), FIG. 8F): 0.0033 | behavior during CFC training (129S6/SvEv mice [3]; one week prior to 3-shock CFC (c-fos / Western blot cohort), (R,S)-ketamine 30 mg/kg, FENM 20 mg/kg, vs saline): did not alter behavior | freezing upon re-exposure (129S6/SvEv mice [3]; one week prior to 3-shock CFC, re-exposed five days later, (R,S)-ketamine 30 mg/kg, FENM 20 mg/kg, vs saline): significantly reduced freezing | distance travelled in the EPM (129S6/SvEv mice [4]; 1 week prior to CFC): did not alter | time spent in the open arms and center of the EPM (129S6/SvEv mice [4]; 1 week prior to CFC): did not alter | distance travelled in the EPM (129S6/SvEv mice [4]; [13]): did not alter | time spent in the open arms and center of the EPM (129S6/SvEv mice [4]; [13]): did not alter
